Read-outs that look alike come from different tables or passages of the source. Square brackets hold non-standard residues; d marks the D form. Peptide text beside a SMILES is read from it. Nrpe = C[C@@H](NCC(=O)O)c1ccccc1; Nspe = C[C@H](NCC(=O)O)c1ccccc1; Nphe = O=C(O)CNCc1ccccc1; Nlys = NCCCCNCC(=O)O

The term IC50 denotes the midpoint of a concentration-inhibition curve.

A short description of data set [1]: MTS assay, metabolic inhibition. The format is cell-based, mouse. As to the method:
(§1) The potencies of all compounds were determined against representative Gram-negative (E. coli ATCC 35218) and Gram-positive (B. subtilis ATCC 6633) biosafety level 1 (BSL1) organisms. In addition to hemolytic activity, the conventional measure of toxicity to mammalian cells, the effect of each ampetoid on NIH 3T3 mouse fibroblast cells was determined using the MTS tetrazolium salt-based calorimetric assay. While hemolysis measures the degree to which erythrocytes are lysed, the MTS assay indirectly quantifies the extent to which cellular metabolic activity is inhibited.
MTS assays. NIH/3T3 cells (ATCC Corporation) cultured at 37° C. and 5% CO2 in complete Dulbecco's modified eagle's media (CDMEM) supplemented with 1% sodium pyruvate, 1% penicillin-streptomycin, 1.5 g/L NaHCO3, and 10% fetal bovine serum. Cells were seeded at a density of 5,000 cells per well for NIH/3T3 cells in 96-well plates (100 μl total volume). A peptoid solution plate (100 μL total volume per well) was prepared by serial dilution of aqueous peptoid stock solution in Hank's balanced salt solution (HBSS) media. The day-old cell monolayers were washed with HBSS and media was replaced with 100 μL HBSS. The contents of the peptoid solution plate were transferred onto corresponding wells of the cell monolayer plate, and 40 μL MTS reagent (Promega, Inc.) was added to each well. After incubating for 3 hours at 37° C., absorbance at 490 nm was determined. […] The average of six replicates is reported.
(Tetrazolium dyes change colour on reduction, which living cells bring about.)

Another data set concerns human erythrocytes. Description: Hemolysis assay. In kind it is cell-based. As to the method:
Hemolysis assays. Erythrocytes were isolated from freshly drawn, heparanized human blood and resuspended to 20 vol % in PBS (pH 7.4). In a 96-well microtiter plate, 100 μL erythrocyte suspension was added to 100 μL peptoid solution in PBS (prepared by 1:2 serial dilutions), or 100 μL PBS in the case of negative controls. 100% hemolysis wells contained 100 μL blood cell suspension with 100 μL 0.2 vol % Triton X-100. The plate was incubated for 1 h at 37° C., then each well was diluted with 150 μL PBS. The plate was then centrifuged at 1200 g for 15 min, 100 μL of the supernatant from each well transferred to a fresh microtiter plate, and A350 measured.
Hemolysis assays. Erythrocytes were isolated from freshly drawn, heparanized human blood and resuspended in PBS (pH 7.4) to make a 20% volume suspension. Peptoid solutions were prepared by serial dilution (2:1) in a 96-well microtiter plate. For test wells, 100 μL of erythrocyte suspension was added to 100 μL of peptoid solution in PBS; PBS without peptoid was used as the negative control and 0.2 vol % Triton X-100 as the positive control that indicates 100% hemolysis. After 1 hour incubation at 37° C., each well was diluted with 150 μL PBS. Plates were then centrifuged at 1,200×g for 15 minutes to pellet the cells. 30 μL of the supernatant from each well were transferred to the corresponding well of a second 96-well plate that contains 70 μL PBS.

The next data set has as its system B. subtilis (ATCC 6633). In kind it is cell-based. As to conditions: ATCC 6633. Here is the method: (§2) Whereas the preceding generation of molecules was designed to elucidate structure function relationships of specific molecular parameters (chirality, length, hydrophobicity, etc.), another generation compounds were designed explicitly to explore effects on selectivity. Antimicrobial activity of these compounds was tested against bacterial strains E. coli (ATTC 35218) and B. subtilis (ATTC 6633) in cation-adjusted MHB using the microdilution protocols previously described. The sequences, antimicrobial activities, hemolytic activities, and metabolic inhibitory concentrations against NIH 3T3 mouse fibroblast cells are summarized in Table 3 and the rationale of their design is described below.
as §1
(§3) Screening antibacterial assays. MICs were determined in 96-well microtiter plates in accordance with CLSI M7-A6 protocols. Peptoid solutions with 50 μL total volume were prepared using 2:1 serial dilutions. 50 μL of bacteria inoculum (1×10^6 CFU/mL) prepared in cation-adjusted Mueller-Hinton broth (CAMHB) was added to test wells. Control wells contained 100 μL MHB (no growth) or 50 μL inoculums with 50 μL MHB with no peptoid. […] Reported values were reproducible over three experiments, each containing two parallel trials.

For another data set, the system named is E. coli (ATCC 35218). The format is cell-based. As to conditions: ATCC 35218. Here is the method:
as §2, §1, §3

`C[C@H](NCC(=O)N(CCCCN)CC(=O)N(CC(=O)N(CCCCN)CC(=O)N(CCCCN)CC(=O)N(CC(=O)N(CC(=O)N(CCCCN)CC(=O)N(CC(=O)N(CCCCN)CC(=O)N(CCCCN)CC(=O)N(CC(N)=O)[C@@H](C)c1ccccc1)[C@@H](C)c1ccccc1)[C@@H](C)c1ccccc1)[C@@H](C)c1ccccc1)[C@@H](C)c1ccccc1)c1ccccc1` [1B-Nlys4,10, H-(Nspe-Nlys-Nspe-Nlys-Nlys-Nspe)2-NH2] (H-[Nspe][Nlys][Nspe][Nlys][Nlys][Nspe][Nspe][Nlys][Nspe][Nlys][Nlys][Nspe]-NH2) came in with an IC50 in data set [1] of 83 µM. Moreover, in the data set with human erythrocytes, the HD10 is recorded as >200/>200 μM and the HD50 is >200/>200 μM. Moreover, in the data set on B. subtilis (ATCC 6633), the “B. subtilis MIC” value came out at 0.78 µM. Moreover, in the data set on E. coli (ATCC 35218), the “E. coli MIC” value is 50 µM.
`C[C@H](NCC(=O)N(CCCCN)CC(=O)N(CC(=O)N(CCCCN)CC(=O)N(CCCCN)CC(=O)N(CC(=O)N(CC(=O)N(CCCCN)CC(=O)N(CC(=O)N(CCCCN)CC(=O)N(CCCCN)CC(=O)N(CC(=O)N(CC(=O)N(CCCCN)CC(=O)N(CC(N)=O)[C@@H](C)c1ccccc1)[C@@H](C)c1ccccc1)[C@@H](C)c1ccccc1)[C@@H](C)c1ccccc1)[C@@H](C)c1ccccc1)[C@@H](C)c1ccccc1)[C@@H](C)c1ccccc1)c1ccccc1` [1B15mer-Nlys4,10, H-(Nspe-Nlys-Nspe-Nlys-Nlys-Nspe)2-Nspe-Nlys-Nspe-NH2] (H-[Nspe][Nlys][Nspe][Nlys][Nlys][Nspe][Nspe][Nlys][Nspe][Nlys][Nlys][Nspe][Nspe][Nlys][Nspe]-NH2) registered an IC50 in data set [1] of 16 µM. For the same compound, in the data set with human erythrocytes, the HD10 is >200/>200 μM and the HD50 is >200/>200 μM. Further, the “B. subtilis MIC” value in the data set with B. subtilis (ATCC 6633) turned out to be 0.78 µM. For the same compound, the “E. coli MIC” value in the data set with E. coli (ATCC 35218) amounted to 50 µM.
On to `C[C@@H](c1ccccc1)N(CC(=O)N(CC(=O)N(CCCCN)CC(=O)N(CC(=O)N(CC(=O)N(CCCCN)CC(=O)N(CC(=O)N(CC(=O)N(CCCCN)CC(=O)N(CC(=O)N(CC(N)=O)Cc1ccccc1)Cc1ccccc1)Cc1ccccc1)Cc1ccccc1)Cc1ccccc1)Cc1ccccc1)Cc1ccccc1)C(=O)CNCCCCN` [1ach-Nspe2, H-(Nlys-Nspe-Npm)-(Nlys-Npm-Npm)3-NH2] (H-[Nlys][Nspe][Nphe][Nlys][Nphe][Nphe][Nlys][Nphe][Nphe][Nlys][Nphe][Nphe]-NH2), for which, in data set [1], the IC50 is 11 µM. In addition, in the data set with human erythrocytes, the HD10 amounted to 160 µM and the HD50 was over 200 µM. Moreover, in the data set on B. subtilis (ATCC 6633), the “B. subtilis MIC” value worked out at 0.78 µM. The “E. coli MIC” value in the data set on E. coli (ATCC 35218) turned out to be 6.3 µM.
`C[C@@H](c1ccccc1)N(CC(N)=O)C(=O)CN(C(=O)CN(CCCCN)C(=O)CN(Cc1ccccc1)C(=O)CN(Cc1ccccc1)C(=O)CN(CCCCN)C(=O)CN(C(=O)CN(C(=O)CN(CCCCN)C(=O)CN(Cc1ccccc1)C(=O)CN(Cc1ccccc1)C(=O)CNCCCCN)[C@@H](C)c1ccccc1)[C@@H](C)c1ccccc1)[C@@H](C)c1ccccc1` [1-Npm2,3,8,9, H-(Nlys-Npm-Npm-Nlys-Nspe-Nspe)2-NH2] yielded an IC50 in data set [1] of 15 µM. This compound gave an HD50 with human erythrocytes of over 200 µM. The “B. subtilis MIC” value in the data set with B. subtilis (ATCC 6633) came to 1.6 µM. The “E. coli MIC” value with E. coli (ATCC 35218) is 6.3 µM.
The corresponding values for `C[C@@H](c1ccccc1)N(CC(=O)N(CCCCN)CC(=O)N(CC(=O)N(CC(=O)N(CCCCN)CC(=O)N(CC(=O)N(CC(=O)N(CCCCN)CC(N)=O)[C@@H](C)c1ccccc1)[C@@H](C)c1ccccc1)[C@@H](C)c1ccccc1)[C@@H](C)c1ccccc1)C(=O)CN(C(=O)CNCCCCN)[C@@H](C)c1ccccc1` [110mer, H-(Nlys-Nspe-Nspe)3-Nlys-NH2] (H-[Nlys][Nspe][Nspe][Nlys][Nspe][Nspe][Nlys][Nspe][Nspe][Nlys]-NH2) are 54 µM, >200/>200 μM, 0.78 µM and 12.5 µM.
In data set [1] (Table 6, NIH 3T3 mouse fibroblast cells), `C[C@H](c1ccccc1)N(CC(=O)N(CC(N)=O)[C@@H](C)c1ccccc1)C(=O)CN(CCCCN)C(=O)CN(C(=O)CN(C(=O)CN(CCCCN)C(=O)CN(C(=O)CN(C(=O)CN(CCCCN)C(=O)CN(C(=O)CN(C(=O)CNCCCCN)[C@H](C)c1ccccc1)[C@@H](C)c1ccccc1)[C@H](C)c1ccccc1)[C@@H](C)c1ccccc1)[C@H](C)c1ccccc1)[C@@H](C)c1ccccc1` [1-Nrpe2,5,8,11, H-(Nlys-Nrpe-Nspe)4-NH2] (H-[Nlys][Nrpe][Nspe][Nlys][Nrpe][Nspe][Nlys][Nrpe][Nspe][Nlys][Nrpe][Nspe]-NH2) returned a half-inhibitory concentration (IC50) of 5.2 µM. Moreover, in the data set with human erythrocytes (Table 6), the HD10 is 22 µM and the HD50 was 95 µM. The “B. subtilis MIC” value in the data set on B. subtilis (ATCC 6633) (Table 6) is 1.6 µM. The “E. coli MIC” value in the data set on E. coli (ATCC 35218) (Table 6) is 6.3 µM.
The compound `C[C@@H](c1ccccc1)N(CC(N)=O)C(=O)CN(C(=O)CN(CCCCN)C(=O)[C@@H]1CCCN1C(=O)CN(C(=O)CN(CCCCN)C(=O)CN(C(=O)CN(C(=O)CN(CCCCN)C(=O)[C@@H]1CCCN1C(=O)CN(C(=O)CNCCCCN)[C@@H](C)c1ccccc1)[C@@H](C)c1ccccc1)[C@@H](C)c1ccccc1)[C@@H](C)c1ccccc1)[C@@H](C)c1ccccc1` [1-Pro3,9, H-(Nlys-Nspe-L-Pro-Nlys-Nspe-Nspe)2-NH2] (H-[Nlys][Nspe]P[Nlys][Nspe][Nspe][Nlys][Nspe]P[Nlys][Nspe][Nspe]-NH2) showed an IC50 in data set [1] of 71 µM. Besides, in the data set with human erythrocytes, the HD10 is recorded as >200/>200 μM and the HD50 is recorded as >200/>200 μM. Further, the “B. subtilis MIC” value in the data set on B. subtilis (ATCC 6633) was found to be 1.6 µM. For the same compound, in the data set on E. coli (ATCC 35218), the “E. coli MIC” value was determined as 50 µM.
For the compound `C[C@@H](c1ccccc1)N(CC(N)=O)C(=O)CN(C(=O)CN(CCCCN)C(=O)CN(C(=O)CN(C(=O)CN(CCCCN)C(=O)CN(C(=O)CN(C(=O)CN(CCCCN)C(=O)[C@@H]1CCCN1C(=O)CN(C(=O)CNCCCCN)[C@@H](C)c1ccccc1)[C@@H](C)c1ccccc1)[C@@H](C)c1ccccc1)[C@@H](C)c1ccccc1)[C@@H](C)c1ccccc1)[C@@H](C)c1ccccc1` [1-Pro3, H-Nlys-Nspe-L-Pro-(Nlys-Nspe-Nspe)3-NH2] (H-[Nlys][Nspe]P[Nlys][Nspe][Nspe][Nlys][Nspe][Nspe][Nlys][Nspe][Nspe]-NH2), the IC50 in data set [1] was 12 µM. In the data set on human erythrocytes, this compound registered an HD10 of 74 µM and an HD50 of over 200 µM. Also, in the data set with B. subtilis (ATCC 6633), the “B. subtilis MIC” value amounted to 1.6 µM. In the data set on E. coli (ATCC 35218), the “E. coli MIC” value was found to be 12.5 µM.
The matching figures for `C[C@@H](c1ccccc1)N(CC(=O)N(CCCCN)CC(=O)N(CC(=O)N(CC(=O)N(CCCCN)CC(=O)N(CC(=O)N(CC(=O)N(CCCCN)CC(=O)N(CC(=O)N(CC(=O)N(CCCCN)CC(N)=O)[C@@H](C)c1ccccc1)[C@@H](C)c1ccccc1)[C@@H](C)c1ccccc1)[C@@H](C)c1ccccc1)[C@@H](C)c1ccccc1)[C@@H](C)c1ccccc1)C(=O)CN(C(=O)CNCCCCN)[C@@H](C)c1ccccc1` [113mer, H-(Nlys-Nspe-Nspe)4-Nlys-NH2] (H-[Nlys][Nspe][Nspe][Nlys][Nspe][Nspe][Nlys][Nspe][Nspe][Nlys][Nspe][Nspe][Nlys]-NH2): 5.6 µM, 21 µM, over 100 µM, 0.78 µM and 3.1 µM.
